Assay results taken from patent US20110059909A1, “METHODS FOR TREATING INFLAMMATORY DISORDERS” (priority 2004, published 2011).

How the values were obtained:
Assay type in all cases: cell-based, rat
ERK1/2 = ERK1/2 activation (phospho-ERK1/2 immunoblot) in primary astrocytes
Description: For iNOS protein, the cells were washed with cold Tris buffered saline (TBS; 20 mM Trizma base, and 137 mM NaCl, pH 7.5), lysed in 1×SDS sample loading buffer (62.5 mM Trizma base, 2% w/v SDS, 10% glycerol), following sonication and centrifugation at 15,000×g for 5 min, the supernatant was used for the iNOS western immunoblot assay. The protein concentration of samples was determined with the detergent compatible protein assay reagent (Bio-Rad Laboratories, CA) using bovine serum albumin (BSA) as the standard. Sample was boiled for 3 min with 0.1 volumes of 10% β-mercaptoethanol and 0.5% bromophenol blue mix. Fifty μg of total cellular protein was resolved by electrophoresis on 8 or 12% polyacrylamide gels, electro-transferred to polyvinylidene difluoride (PVDF) filter and blocked with Tween 20 containing Tris-buffered saline (TBST; 10 mM Trizma base-pH 7.4, 1% Tween 20, and 150 mM NaCl) with 5% skim milk. After incubation with antiserum against iNOS (BD PharMingen, CA), rat GalT-2 (Abjent Inc., CA), H-Ras (Upstate Biotechnology, CA), GFAP (Santa Cruz Biotech, CA), or phospho-specific ERK1/2 (Cell signaling Tech Inc., MA), or pIκ-B (Signal Transduction), in PVDF buffer for 2 h at room temperature, the filters were washed 3 times with TBST buffer and then incubated with horseradish peroxidase conjugated anti-rabbit or mouse IgG for 1 h. The membranes were detected by autoradiography using ECL-plus (Amersham Pharmacia Biotech) after washing with TBST buffer.

NF-κB = NF-κB DNA binding, electrophoretic mobility shift assay
Description: Nuclear extracts from cells (1×10^7 cells) were prepared using a previously published method (Dignam et al., 1983) with slight modifications. Cells were harvested, washed twice with ice-cold TBS, and lysed in 400 μl of buffer A containing 10 mM KCl, 2 mM MgCl2, 0.5 mM dithiothreitol, protease inhibitor cocktail (Sigma), and 0.1% Nonidet P-40 in 10 mM HEPES, pH 7.9 for 10 min on ice. Following centrifugation at 5,000×g for 10 min, the pelleted nuclei were washed with buffer A without Nonidet P-40, and resuspended in 40 μl of buffer B containing 25% (v/v) glycerol, 0.42M NaCl, 1.5 mM MgCl2, 0.2 mM EDTA, 0.5 mM dithiothreitol, and Complete™ protease inhibitor cocktail (Roche) in 20 mM HEPES, pH 7.9 for 30 min on ice. The lysates were centrifuged at 15,000×g for 15 min and the supernatants containing the nuclear proteins were stored at −70° C. until use. Ten μg of nuclear proteins was used for the electrophoretic mobility shift assay for detection of NF-κB DNA binding activities. DNA-protein binding reactions were carried out at room temperature for 20 min in 10 mM Trizma base (pH 7.9), 50 mM NaCl, 5 mM MgCl2, 1 mM EDTA, 1 mM dithiothreitol, 1 μg poly (dI-dC), 5% (v/v) glycerol, and approximately 0.3 pmol of NF-κB probe (Santa Cruz Biotech) labeled with DIG-ddUTP using terminal deoxynucleotidyl transferase (Roche). […]

TNFα = TNFα mRNA in LPS/IFNγ-stimulated primary astrocytes
Description: A 20-mer antisense oligonucleotide of the following sequence (5′-CGCTTGAGCGCAGACATCTT-3′, SEQ ID NO:1) targeted against rat lactosylceramide synthase (GalT-2) were synthesized by Integrated DNA Technology. A scrambled oligonucleotide (5′-CTGATATCGTCGATATCGAT-3′, SEQ ID NO:2) was also synthesized and used as control. Cells were counted and plated a day before transfection and the following day were treated with Oligofectamine (Invitrogen)-oligonucleotide complexes (200 nM oligo) under serum free conditions. 48 h following transfection, the protein levels of GalT-2 were analyzed using polyclonal antibodies raised against rat GalT-2 (Abjent Inc., CA). The transfected cells were stimulated with LPS/IFNγ (1 μg/ml) and levels of nitric oxide were checked 24 h following stimulation. iNOS mRNA and protein levels were checked at 6 h and 24 h, respectively, following stimulation of transfected cells.
5 μg total RNA was treated with 2 U DNAse I (bovine pancreas, Sigma) for 15 min at room temperature in 18 μl volume containing 1×PCR buffer and 2 mM MgCl2. It was then inactivated by incubation with 2 μl of 25 mM EDTA at 65° C. for 15 min. 2 μl of random primers were added and annealed to the RNA according to the manufacturer's protocol. cDNA was synthesized in a 50 μl reaction containing 5 μg of total RNA and 50-100 U reverse transcriptase by incubating the tubes at 42° C. for 60 min. […]

CCCCCCCCCC(=O)NC(CN1CCOCC1)C(O)c1ccccc1.Cl [PDMP, D-threo-1-Phenyl-2-decanoylamino-3-morpholino-1-propanol.HCl]
LPS/IFNγ-induced phosphorylation of ERK1/2 (ERK1/2; pretreated 0.5 h, LPS/IFNγ 20 min): inhibited
TNFα-induced ERK1/2 phosphorylation (ERK1/2; pretreated 0.5 h, TNFα 20 min): inhibited
NF-κB DNA binding activity (NF-κB; increasing doses of PDMP, LPS/IFNγ 45 min): inhibited

AS GalT-2 oligonucleotides: 20-mer antisense oligonucleotide 5′-CGCTTGAGCGCAGACATCTT-3′, SEQ ID NO:1, against rat lactosylceramide synthase (GalT-2) (antisense CGCTTGAGCGCAGACATCTT; chemistry not given here)
TNFα mRNA expression (TNFα; LPS/IFNγ-stimulated astrocytes, 48 h after transfection): suppressed

Lactosylceramide [LacCer]
Reversal of LY-mediated inhibition of TNFα-mediated ERK1/2 activation (ERK1/2; LY 30 μM plus LacCer 10 μM): bypassed
Reversal of PD98059-mediated inhibition of TNFα-induced ERK1/2 activity (ERK1/2; exogenous LacCer): not
Reversal of PDMP-mediated inhibition of LPS/IFNγ-induced ERK1/2 phosphorylation (ERK1/2; exogenous LacCer): reversed
Reversal of PDMP-mediated inhibition of TNFα-induced ERK1/2 activity (ERK1/2; exogenous LacCer): reverse
Reversal of PDMP-mediated inhibition of NF-κB DNA binding activity (NF-κB; exogenous LacCer): reversed
Reversal of AS-mediated inhibition of TNFα expression (TNFα; exogenous LacCer, LPS/IFNγ): reversed
